In brackets after ≈: the same amount, converted by molar mass.
Key:
[1] = Inhibition of metallo-beta-lactamase L1 (unknown origin) overexpressed in Escherichia coli BL21(DE3) preincubated for 30 mins followed by addition of cefazolin as substrate by spectrophotometric method
[2] = Inhibition of metallo-beta-lactamase L1 (unknown origin) overexpressed in Escherichia coli BL21(DE3) assessed as restoration of cefazolin antibacterial activity by measuring cefazolin MIC at 16 ug/ml measured after 12 hrs by macrodilution broth method (reference value: 16 ug/ml)
Escherichia coli = experiment: Potentiation of cefazolin-induced antibacterial activity against Escherichia coli BL21(DE3) assessed as cefazolin MIC at 16 ug/ml measured after 12 hrs by macrodilution broth method (reference value: 4 ug/ml); type: functional

| SMILES | IC50 [1] [nM] | MIC [2] [µg/mL] | MIC (Escherichia coli) [µg/mL] |
| --- | --- | --- | --- |
| CSCC[C@H](NC(=O)Cc1ccc(-c2ccccc2)cc1)C(=O)SCC(=O)O | 20 | 4 (≈ 9.58 µM) | 4 |
| CSCC[C@H](NC(=O)Cc1ccccc1)C(=O)SCC(=O)O | 90 | 4 (≈ 11.7 µM) | 4 |
| CCCCCC(=O)N[C@@H](Cc1ccccc1)C(=O)SCC(=O)O | 330 | 2 (≈ 5.93 µM) | 4 |
| CSCC[C@H](NC(=O)c1ccccc1)C(=O)SCC(=O)O | 80 | 4 (≈ 12.2 µM) | 4 |
| O=C(O)CSC(=O)c1ccc(NC(=O)OCc2ccccc2)cc1 |  | 16 (≈ 46.3 µM) | 4 |
| CCCCCC(=O)N[C@@H](Cc1c[nH]c2ccccc12)C(=O)SCC(=O)O | 600 | 4 (≈ 10.6 µM) | 4 |
| O=C(O)CSC(=O)[C@H](Cc1c[nH]c2ccccc12)NC(=O)Cc1ccc(-c2ccccc2)cc1 | 80 | 4 (≈ 8.46 µM) | 4 |
| O=C(O)CSC(=O)[C@H](Cc1ccccc1)NC(=O)Cc1ccc(-c2ccccc2)cc1 | 140 | 2 (≈ 4.61 µM) | 4 |
| O=C(O)CSC(=O)[C@H](Cc1c[nH]c2ccccc12)NC(=O)Cc1ccccc1 | 210 | 4 (≈ 10.1 µM) | 4 |
| O=C(O)CSC(=O)[C@H](Cc1ccccc1)NC(=O)Cc1ccccc1 | 250 | 2 (≈ 5.6 µM) | 4 |

Reference: ChEMBL document CHEMBL3860053, “Optimization of amino acid thioesters as inhibitors of metallo-β-lactamase L1” (Bioorg Med Chem Lett, 2016)
